Measurements reported in US7927794B2, “Methods for identifying a biosynthetic pathway gene product” (priority 2003, dated 2011).

What was measured:
E. coli strain DYM1 = assay: Complementation of isoprenoid-deficient ispC mutant E. coli strain DYM1 on supplemented plates; format: cell-based, Escherichia coli
From the text: (§1) Campos (2001) Biochem. J. 353:59-67.
To increase the intracellular concentration of FPP substrate supplied to the amorphadiene synthase, the genes encoding the mevalonate-dependent isoprenoid pathway from S. cerevisiae were assembled into operons and expressed in E. coli. To simplify the task of engineering an eight-gene biosynthetic pathway, we divided the genes into two operons, referred to as the “top” and “bottom”. The top operon, MevT, transforms the ubiquitous precursor acetyl-CoA to (R)-mevalonate in three enzymatic steps (FIG. 13). The bottom operon converts the (R)-mevalonate to IPP, DMAPP and/or FPP depending on the construct (FIG. 13). To test the functionality of the heterologous pathway, an E. coli strain deficient in isoprenoid synthesis (strain DYM1) was transformed with plasmids expressing the three different bottom operon constructs pMevB, pMBI and pMBIS (FIG. 13). Strain DYM1 has a deletion in the ispC gene, which encodes 1-deoxy-D-xylulose-5-phosphate reductoisomerase (Kuzuyama et al. (1999) supra) and therefore, cannot synthesize 2-C-methyl-D-erythritol 4-phosphate, an intermediate in the endogenous isoprenoid biosynthetic pathway (FIG. 3). As expected, all strains grew in the presence of 2-C-methyl-D-erythritol (ME), but only the strains harboring pMBI or pMBIS and not pMevB grew on plates supplemented with 1 mM mevalonate in the absence of ME. […]

E. coli DH10B = assay: Growth (optical density) of E. coli harboring mevalonate pathway operon plasmids in media supplemented with exogenous mevalonate; set-up: growth of strains lacking the ADS gene: dose or concentration left out as unconfirmed
Experimental: For the growth studies, the optical density (OD) of cultures expressing the various recombinant pathways was measured with a microtiter plate reader (SpectraMax, Molecular Devices) from 200 μl cultures of LB broth in 96-well plates incubated at 37° C. with continuous shaking. […] The DYM1 strain was propagated on LB medium containing 0.5 mM methylerithrytol (ME) and transformed DYM1 cells were first allowed to recover on plates supplemented with ME before streaking them on test media.
To investigate the cause of this inhibition, measured the growth of E. coli DH10B from strains harboring either the pMKPMK, pMevB, pMBI or pMBIS plasmid in media supplemented with increasing concentrations of exogenous mevalonate was measured. […] To compare the intracellular prenyl pyrophosphate pools in the same strains, resting cells harboring the different mevalonate operon constructs were fed radiolabeled mevalonate and the labeled metabolites were tracked. […] Simultaneous expression of the amorphadiene synthase consumed the excess FPP pool accumulated in the MBIS host, as shown by a decrease in intracellular FPP.
However, in the absence of the IPP isomerase, FPP synthase and terpene synthase to channel the pathway intermediates to the terpene olefin, toxic levels of intracellular pyrophosphates, especially IPP, may accumulate.

E. coli = assay: Growth of E. coli overproducing IPP and DMAPP (MK, PMK, MPD, IPP isomerase from pBBR1MCS-2) with various concentrations of mevalonate; format: cell-based, Escherichia coli; settings: all concentrations of mevalonate studied
From the text: as §1
A genomic library from the isoprene-producing bacteria Bacillus subtilis 6051 was expressed from the pTrc99A plasmid in an E. coli strain engineered (genetically modified) to produce elevated levels of IPP and DMAPP. The engineered screening strain expressed nucleic acids encoding mevalonate kinase, phosphomevalonate kinase, mevalonate diphosphate decarboxylase, and IPP/DMAPP isomerase from the pBBR1MCS plasmid, as described in Example 1. Mevalonate was present in the growth medium at a concentration of 10 mM. After several rounds of growth, only plasmids containing genomic fragments with either yhfR or nudF were found in the genomic library.
FIG. 7. […] Triplicate cultures of E. coli expressing the genes encoding for mevalonate kinase, phosphomevalonate kinase, mevalonate diphosphate decarboxylase, and IPP isomerase from the pBBR1MCS-2 plasmid were grown in the presence of various concentrations of mevalonate present in the culture medium. The cells also harbor the pTRC99A expression vector.
FIG. 8. […] Triplicate cultures were set up, which were identical to those depicted in FIG. 7, except that pTRC99A was replaced by pYhfR. The pYhfR plasmid is a pTrc99A backbone that contains the gene yhfR. The yhfR gene was isolated from a plasmid library containing genomic DNA from Bacillus subtilis 6051.
FIG. 9. […]

engineered E. coli = assay: Growth and metabolite analysis of E. coli expressing S. cerevisiae HMG-CoA synthase (pHMGS); format: cell-based, Escherichia coli; settings: accumulation on expression of HMG-CoA synthase from pHMGS
From the text: As a specific example, the accumulation of hydroxymethylglutaryl-CoA (HMG-CoA) is toxic to engineered E. coli.
(§2) FIG. 10. Cultures of E. coli expressing either no heterologous genes (Control), the S. cerevisiae HMG-CoA synthase alone (pHMGS & Empty Vector), or both the S. cerevisiae HMG-CoA synthase and HMG-CoA reductase (pHMGS & pHMGR) on separate expression vectors.
as §2, with “11. Metabolite analysis of cultures” for “10. Cultures”, “and” for “&”, “vectors. E. coli expressing HMG-CoA synthase alone accumulated HMG-CoA.” for “vectors.”

Compound: C[C@](O)(CO)[C@H](O)CO [2-C-methyl-D-erythritol]
- growth of DYM1 strains harboring pMevB, pMBI or pMBIS (E. coli strain DYM1; in the presence of 2-C-methyl-D-erythritol (ME)): grew

Compound: C=C(C)CCO[P@@](=O)(O)OP(=O)(O)O [IPP, isopentenyl diphosphate]
- effect of intracellular accumulation on cell growth (E. coli DH10B; accumulation in cells with high flux through the mevalonate pathway (pMevB)): toxic and inhibits normal cell growth

Compound: CC(O)(CCO)CC(=O)O (stereo not shown) [mevalonate]
- growth of cells harboring pMKPMK, pMBI or pMBIS (E. coli DH10B; 5 mM mevalonate in the media): did not affect the growth
- growth of cells harboring pMevB (E. coli DH10B; 5 mM mevalonate in the media): inhibited the growth
- growth of cells expressing MBIS (E. coli DH10B; 10 mM mevalonate): growth inhibition
- growth of cells co-expressing the MBIS operon and the amorphadiene synthase gene (E. coli DH10B; all mevalonate concentrations, IPTG-inducible promoters): normal growth rates
- growth of strains lacking the ADS gene (E. coli DH10B; approximately 2 hours after addition of mevalonate and IPTG): Growth inhibition
- growth of control cultures (E. coli DH10B; greater than 10 mM mevalonate, MBIS cultures where amorphadiene synthase was not expressed): Severe growth inhibition
- growth on expression of the operons (E. coli DH10B; media supplemented with 1 mM mevalonate): only a slight decrease in growth
- growth of DYM1 strains harboring pMBI or pMBIS (E. coli strain DYM1; plates supplemented with 1 mM mevalonate in the absence of ME): grew
- growth of cells harboring pYhfR (yhfR) (E. coli; FIG. 8): No growth inhibition
- growth of cells harboring pC9b (nudF) (E. coli; FIG. 9): No growth inhibition

Compound: CC(C)(COP(=O)(O)OP(=O)(O)OC[C@H]1O[C@@H](n2cnc3c(N)ncnc32)[C@H](O)[C@@H]1OP(=O)(O)O)[C@@H](O)C(=O)NCCC(=O)NCCSC(=O)C[C@@](C)(O)CC(=O)O [HMG-CoA, hydroxymethylglutaryl-CoA]
- effect of intracellular accumulation on engineered E. coli (engineered E. coli): toxic
